Some results are limits rather than exact numbers.

The values below come from patent publication US20240059658A1 (Emory University, priority 2019, published 2024).

For one assay, the target named is T1, MDM2 (Homo sapiens, UniProt Q00987).
T1 construct: ubiquitination of endogenous MDM2 in EU-1 cells; endogenous in cells; host or cells: EU-1 (ALL) cells
Nature of the assay: MDM2 reduction / expression (Western blot). Format: cell-based. The following applies: words or +/− grades, key not given. As for the experimental part: Cells were lysed in a buffer composed of 50 mM Tris, pH 7.6, 150 mM NaCl, 1% Nonidet P-40, 10 mM sodium phosphate, 10 mM NaF, 1 mM sodium orthovanadate, 2 mM phenylmethylsulfonyl fluoride (PMSF), […], 10 μg/mL leupeptin and 10 μg/mL pepstatin. After centrifugation, the clarified cell lysate was separated from the pellet of cell debris, and then incubated with 15 μL Protein G/Protein A-agarose and 1 μg of antibodies, overnight at 4° C. For the Western blot, the resulting cell lysates or immunoprecipitates were resolved by SDS-PAGE. They were then transferred to a nitrocellulose filter and probed with the specific antibodies as listed in the supplemental Materials section. Finally, proteins were visualized with a chemiluminescent detection system.

A further assay has as its system EU-1. Nature of the assay: WST cytotoxicity assay, cancer cell EU-1. The following applies: Homo sapiens, EU-1, EU-1; no other cell line named in the cell; read-out: Cancer cell (EU-1) cytotoxicity IC50. It counts as cell-based, human. As for the experimental part: This study used two ALL cell lines (EU-1 and EU-3) and three NB cell lines (NB-1643, SHEP1 and LA1-55N). All 5 cancer cell lines were established from pediatric ALL or NB patients and were well-characterized for their expression of MDM2 and p53-status, as reported previously. All cell lines were grown in standard culture medium (RPMI 1640 containing 10% FBS, 2 mmol/L L-glutamine, 50 U penicillin and 50 μg/mL streptomycin) at 37° C. in a humidified atmosphere containing 5% CO2.
The cytotoxic effect of MX 69 and MX69 analogs on cancer cells was determined using the water-soluble tetrazolium salt (WST) assay. Briefly, cells cultured in 96-well microtiter plates were treated with different concentrations of AQ-101 for a 20-h period. WST (25 μg/well) was then added and incubation continued for an additional 4 h, after which optical density (OD) was read with a microplate reader (test wavelength of 450 nm; reference wavelength of 620 nm).

T1 sequence (Q00987 whole entry): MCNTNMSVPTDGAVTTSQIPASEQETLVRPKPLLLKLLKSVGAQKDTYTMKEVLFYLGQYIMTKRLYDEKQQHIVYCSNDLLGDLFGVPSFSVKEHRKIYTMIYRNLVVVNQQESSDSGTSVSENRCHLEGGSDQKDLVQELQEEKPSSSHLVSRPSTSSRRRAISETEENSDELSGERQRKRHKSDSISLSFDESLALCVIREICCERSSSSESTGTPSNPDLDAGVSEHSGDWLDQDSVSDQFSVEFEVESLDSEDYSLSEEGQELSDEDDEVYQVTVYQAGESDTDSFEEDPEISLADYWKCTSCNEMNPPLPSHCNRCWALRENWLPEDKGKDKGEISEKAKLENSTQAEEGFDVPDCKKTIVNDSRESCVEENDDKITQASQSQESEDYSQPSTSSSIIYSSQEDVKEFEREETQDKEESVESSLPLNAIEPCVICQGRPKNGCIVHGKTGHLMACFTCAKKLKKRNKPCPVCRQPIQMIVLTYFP

In the case of `Cc1ccc(NS(=O)(=O)c2ccc3c(c2)C2OCC[C@H]2C(c2ccc(C(=O)c4ccccc4)cc2)N3)cc1C` (stereo in doubt) [Compound 69L54], the MDM2 reduction result at MDM2 is recorded as “inhibition”. Also, the IC50 with EU-1 was 3220 nM.
As for `CC(=O)c1ccc(NS(=O)(=O)c2ccc3c(c2)[C@H]2OCC[C@H]2C(c2cccc(C(C)=O)c2)N3)cc1` (stereo in doubt) [Compound 69L101, 4-(3-acetylphenyl)-N-(4-acetylphenyl)-2,3,3a,4,5,9b-hexahydrofuro[3,2-c]quinoline-8-sulfonamide], the MDM2 reduction result at MDM2 was “inhibition”. Also, the half-maximal inhibitory concentration (IC50) in the assay on EU-1 was 1800 nM.
As for `CC(=O)c1cccc(NS(=O)(=O)c2ccc3c(c2)[C@H]2OCC[C@H]2C(c2cccc(C(C)=O)c2)N3)c1` (stereo in doubt) [Compound 69L103, N,4-bis(3-acetylphenyl)-2,3,3a,4,5,9b-hexahydrofuro[3,2-c]quinoline-8-sulfonamide], the MDM2 reduction entry on MDM2 is “No MDM2”. The IC50 in the assay with EU-1 came out at 970 nM.
As to `CC(=O)c1ccc([C@@H]2Nc3ccc(S(=O)(=O)Nc4ccc(C)c(C)c4)cc3[C@H]3C=CC[C@H]32)cc1` [Compound 69L48], the MDM2 reduction entry at MDM2 was “inhibition”. Also, in the assay on EU-1, the IC50 is 3800 nM.
Consider `Cc1ccc(NS(=O)(=O)c2ccc3c(c2)[C@H]2OCC[C@H]2[C@H](C2CCNCC2)N3)cc1C` [Compound 69L55], for which the MDM2 reduction entry at MDM2 is “No MDM2”. Besides, the IC50 in the assay with EU-1 amounted to 1640 nM.
As for `Cc1ccc(NS(=O)(=O)c2ccc3c(c2)[C@H]2OCC[C@H]2[C@H](C2CCC(C(C)C)CC2)N3)cc1C` (stereo partly shown) [Compound 69L56, N-(3,4-dimethylphenyl)-4-(4-isopropylcyclohexyl)-2,3,3a,4,5,9b-hexahydrofuran[3,2-c]quinolone-8-sulfonamine], the MDM2 reduction entry on MDM2 is “inhibition”. Moreover, in the assay on EU-1, the IC50 was found to be 10200 nM.
For `O=S(=O)(Nc1ccccc1)c1ccc2c(c1)[C@H]1OCC[C@H]1[C@H](C1CCCCC1)N2` [Compound 69L66], the MDM2 reduction entry at MDM2 is listed as “No MDM2”. Besides, the IC50 in the assay with EU-1 worked out at 2560 nM.
Regarding `Cc1ccc(NS(=O)(=O)c2ccc3c(c2)[C@H]2OCC[C@H]2C(c2ccc(C(=O)C4CCCCC4)cc2)N3)cc1C` (stereo partly shown) [Compound 69L70], the MDM2 reduction result at MDM2 is reported as “No MDM2”. Moreover, the IC50 in the assay with EU-1 was 3090 nM.
Take `CCCC(=O)c1ccc(C2Nc3ccc(S(=O)(=O)Nc4ccc(C)c(C)c4)cc3[C@H]3OCC[C@@H]23)cc1` (stereo partly shown) [Compound 69L72]: the MDM2 reduction result at MDM2 is listed as “No MDM2”. For the same compound, the IC50 in the assay with EU-1 was found to be 2940 nM.
In the same order, the values of `Cc1ccc(NS(=O)(=O)c2ccc3c(c2)[C@H]2OCC[C@H]2C(c2ccc(C(=O)C(C)C)cc2)N3)cc1Cl` (stereo partly shown) [Compound 69L73, N-(3-chloro-4-methylphenyl)-4-(4-isobutyrylphenyl)-2,3,3a,4,5,9b-hexahydrofuran[3,2-c]quinolone-8-sulfonamide] are “No MDM2” and 1560 nM.
The matching figures for `CC(C)C(=O)c1ccc(C2Nc3ccc(S(=O)(=O)Nc4ccccc4)cc3[C@H]3OCC[C@@H]23)cc1` (stereo partly shown) [Compound 69L75]: “No MDM2” and 3210 nM.
In the same order, the values of `CC(C)C(=O)c1ccc(C2Nc3ccc(S(=O)(=O)N[C@H]4CC[C@H](C)CC4)cc3[C@H]3OCC[C@@H]23)cc1` (stereo partly shown) [Compound 69L78] are “No MDM2” and 3670 nM.
As for `Cc1cc(NS(=O)(=O)c2ccc3c(c2)[C@H]2OCC[C@H]2C(c2ccc(C(=O)C(C)C)cc2)N3)ccc1F` (stereo partly shown) [Compound 69L79], at MDM2, the MDM2 reduction entry is recorded as “No MDM2”. Further, the IC50 in the assay with EU-1 was 2910 nM.
The matching figures for `Cc1ccc(NS(=O)(=O)c2ccc3c(c2)[C@H]2C=CC[C@H]2[C@H](c2ccc(C(=O)C(C)C)cc2)N3)cc1C` [Compound 69L80]: “No MDM2” and 2660 nM.
Regarding `Cc1ccc(NS(=O)(=O)c2ccc3c(c2)C2OCC[C@H]2C(c2cccc(C(=O)C(C)C)c2)N3)cc1C` (stereo partly shown) [Compound 69L94], the MDM2 reduction result on MDM2 is given as “No MDM2”. The IC50 in the assay with EU-1 worked out at 3560 nM.
Consider `Cc1cccc(NS(=O)(=O)c2ccc3c(c2)[C@H]2OCC[C@H]2[C@H](c2ccc(C(=O)C(C)C)cc2)N3)c1` [Compound 69L95], for which, at MDM2, the MDM2 reduction result was “inhibition”. Moreover, the 50% inhibitory concentration (IC50) in the assay on EU-1 came out at 1420 nM.
With `CC(C)C(=O)c1ccc(C2Nc3ccc(S(=O)(=O)Nc4cccc(N(C)C)c4)cc3[C@H]3OCC[C@@H]23)cc1` (stereo partly shown) [Compound 69L141], the IC50 with EU-1 was found to be 7500 nM.
In the case of `CC(C)C(=O)c1ccc(C2Nc3ccc(S(=O)(=O)Nc4ccc5c(c4)OCO5)cc3[C@H]3OCC[C@@H]23)cc1` (stereo partly shown) [Compound 69L142], in the assay on EU-1, the IC50 is greater than 5000 nM.
Still for that read-out and setting: the figure for `CN(C)c1cccc(NS(=O)(=O)c2ccc3c(c2)[C@H]2OCC[C@H]2[C@H](C2CCCCC2)N3)c1` [Compound 69L143] is 3960 nM; for `CC(=O)c1cccc(NS(=O)(=O)c2ccc3c(c2)[C@H]2OCC[C@H]2[C@H](C2CCCCC2)N3)c1` [Compound 69L144] it is 1530 nM; for `CC(C)C(=O)c1cccc(C2CC(=O)c3cc(S(=O)(=O)Nc4ccc(Cl)c(Cl)c4)ccc3N2)c1` (stereo not shown) [Compound 69L145] it is 3500 nM.
The same measure, in the same setting: the figure for `CC(C)C(=O)c1ccc(C2Nc3ccc(S(=O)(=O)Nc4cccc5c4COC5=O)cc3[C@H]3OCC[C@@H]23)cc1` (stereo partly shown) [Compound 69L146] is 3810 nM.
On the same count and under the same terms, the figure for `CC(=O)c1cccc(C2CC(=O)c3cc(S(=O)(=O)Nc4ccc5c(c4)OCO5)ccc3N2)c1` (stereo not shown) [Compound 69L147] is 1160 nM.
As for `CCc1cccc(NS(=O)(=O)c2ccc3c(c2)[C@H]2OCC[C@H]2C(c2ccc(C(=O)C(C)C)cc2)N3)c1` (stereo partly shown) [Compound 69L148], the half-maximal inhibitory concentration (IC50) with EU-1 is 2050 nM.
For the compound `CC(C)C(=O)c1cccc(C2CC(=O)c3cc(S(=O)(=O)Nc4cccc5c4COC5=O)ccc3N2)c1` (stereo not shown) [Compound 69L149], the IC50 in the assay on EU-1 stood at 580 nM.
In the case of `CCc1cccc(NS(=O)(=O)c2ccc3c(c2)C(=O)CC(c2cccc(C(=O)C(C)C)c2)N3)c1` (stereo not shown) [Compound 69L150, N-(3-ethylphenyl)-2-(3-isobutyrylphenyl)-4-oxo-1,2,3,4-tetrahydroquinoline-6-sulfonamide], the IC50 with EU-1 came out at 40 nM.
With `CC(C)C(=O)c1cccc(C2CC(=O)c3cc(S(=O)(=O)Nc4cccc(C#N)c4)ccc3N2)c1` (stereo not shown) [Compound 69L155], the half-maximal inhibitory concentration (IC50) in the assay with EU-1 worked out at 1450 nM.
With `Cc1ccc(NS(=O)(=O)c2ccc3c(c2)C(=O)CC(c2cccc(C(=O)C(C)C)c2)N3)cc1C#N` (stereo not shown) [Compound 69L156], the concentration for half-maximal inhibition (IC50) with EU-1 was determined as 540 nM.
On the same count and under the same terms, with `COc1cccc(NS(=O)(=O)c2ccc3c(c2)C(=O)CC(c2cccc(C(=O)C(C)C)c2)N3)c1` (stereo not shown) [Compound 69L157, 2-(3-isobutyrylphenyl)-N-(3-methoxyphenyl)-4-oxo-1,2,3,4-tetrahydroquinoline-6-sulfonamide] the figure was 330 nM; with `Cc1ccc(NS(=O)(=O)c2ccc3c(c2)C(=O)CC(c2cccc(C(=O)N(C)C)c2)N3)cc1C` (stereo not shown) [Compound 69L158], 630 nM.
For the compound `COc1cccc(NS(=O)(=O)c2ccc3c(c2)C(=O)CC(c2cccc(C(=O)N(C)C)c2)N3)c1` (stereo not shown) [Compound 69L159, 3-(6-(N-(3-methoxyphenyl)sulfamoyl)-4-oxo-1,2,3,4-tetrahydroquinolin-2-yl)-N,N-dimethylbenzamide], the half-inhibitory concentration (IC50) with EU-1 stood at 650 nM.
Turning to `COc1cc(NS(=O)(=O)c2ccc3c(c2)C(=O)CC(c2cccc(C(=O)C(C)C)c2)N3)ccc1C` (stereo not shown) [Compound 69L160, 2-(3-isobutyrylphenyl)-N-(3-methoxy-4-methylphenyl)-4-oxo-1,2,3,4-tetrahydroquinoline-6-sulfonamide], in the assay with EU-1, the IC50 was determined as 540 nM.
As for `COc1cc(NS(=O)(=O)c2ccc3c(c2)C(=O)CC(c2cccc(C(=O)N(C)C)c2)N3)ccc1C` (stereo not shown) [Compound 69L161], in the assay on EU-1, the IC50 was 820 nM.
`CC(=O)c1cccc(S(=O)(=O)Nc2ccc3c(c2)[C@H]2OCC[C@H]2C(c2ccc(C(=O)C(C)C)cc2)N3)c1` (stereo partly shown) [Compound 69L163, 3-acetyl-N-(4-(4-isobutyrylphenyl)-2,3,3a,4,5,9b-hexahydrofuro[3,2-c]quinolone-8-yl)benzenesulfonamide]: the 50% inhibitory concentration (IC50) in the assay on EU-1 was 2500 nM.
Turning to `COc1cc(NS(=O)(=O)c2ccc3c(c2)C(=O)CC(c2cccc(C(C)=O)c2)N3)ccc1C` (stereo not shown) [Compound 69L164], in the assay on EU-1, the IC50 worked out at 710 nM.
For `COc1cc(NS(=O)(=O)c2ccc3c(c2)C(=O)CC(c2ccc(C(C)=O)cc2)N3)ccc1C` (stereo not shown) [Compound 69L165], the IC50 with EU-1 was found to be 8900 nM.
Consider `CCc1cccc(NS(=O)(=O)c2ccc3c(c2)C(=O)CC(c2cccc(C(=O)N(C)C)c2)N3)c1` (stereo not shown) [Compound 69L166], for which the IC50 in the assay on EU-1 is 110 nM.
For `CCc1cccc(NS(=O)(=O)c2ccc3nc(-c4cccc(C(=O)C(C)C)c4)c(OC)cc3c2)c1` [Compound 69L167], the IC50 with EU-1 was determined as 3600 nM.
On to `CCc1cccc(NS(=O)(=O)c2ccc3c(c2)C(=O)C(F)C(c2cccc(C(=O)C(C)C)c2)N3)c1` (stereo not shown) [Compound 69L168], for which the IC50 in the assay with EU-1 was found to be 340 nM.
